Patent US12227509B2, “Dihydropyrazolopyrazinone derivative having MGAT2 inhibitory activity” (Shionogi & Co., Ltd., priority 2019, dated 2025)

Target: recombinant human MGAT2 (Homo sapiens (Human), UniProt Q3SYC2)
Assay: Measurement of human MGAT2 inhibitory activity
Assay type: biochemical
Conditions: concentration exhibiting 50% enzyme inhibition; recombinant human MGAT2, 2-Oleoylglycerol/Oleoyl-CoA
Description: A full-length human MGAT2 gene to which a Flag-tag had been added at the N-terminal was inserted into pFastBac (from Invitrogen). A recombinant baculovirus was produced in accordance with the protocol for a Bac-to-Bac baculovirus expression system (produced by Invitrogen), and Sf-9 cells were infected therewith. The cells were collected and sonicated, and then the membrane fraction was collected through centrifugation. Western blotting analysis with an anti-Flag antibody was performed for the membrane fraction to confirm expression, and the membrane fraction was used as a recombinant human MGAT2 enzyme solution.
Solutions of the compounds of the present invention in DMSO were each aliquoted into 0.2-μL portions in a 384-well polystyrene microplate produced by Corning Incorporated, and 5 μL of an enzyme solution prepared with an assay buffer (100 mmol/L phosphate buffer (pH 7.4) containing 2 mmol/L DTT) and 5 μL of a substrate solution (100 mmol/L phosphate buffer (pH 7.4), 30 μmol/L 2-Oleoylglycerol, 10 μmol/L Oleoyl-CoA) were added thereto, and the resultant was stirred and centrifuged, and incubated in a moist chamber at room temperature for 1 hour. After enzymatic reaction, 50 μL of a quenching solution (containing 0.2 μmol/L Diolein-d5, 0.4% formic acid, and 50% isopropanol) containing Internal Standard (IS) was added to terminate the reaction, and the resultant was sealed in a plate produced by Shimadzu GLC Ltd., and then stirred and centrifuged, and measurement was performed by using an electrospray ionization method with a RapidFire360 and Agilent 6550 Q-TOF mass spectrometer. Diolein as a reaction product (P) of 2-Oleoylglycerol as the substrate and an ammonium adduct ion of the IS were detected, and the peak intensity ratio, P/IS, was calculated from the peak heights to evaluate the inhibitory activity. Inhibitory activities with/without addition of enzyme were defined as Control (+)/Control (−), respectively, and the respective % inhibitions were defined as 0% inhibition and 100% inhibition. The inhibitory activity was calculated from formula below with TIBCO Spotfire (produced by TIBCO Software Inc.)
Inhibitory activity (%)=[1−{Sample−Control (−)}/{Control (+)−Control (−)}]*100 where Sample indicates a peak intensity ratio: P/IS, when the compound of the present invention was added.

Sequence of recombinant human MGAT2 (Q3SYC2 whole entry): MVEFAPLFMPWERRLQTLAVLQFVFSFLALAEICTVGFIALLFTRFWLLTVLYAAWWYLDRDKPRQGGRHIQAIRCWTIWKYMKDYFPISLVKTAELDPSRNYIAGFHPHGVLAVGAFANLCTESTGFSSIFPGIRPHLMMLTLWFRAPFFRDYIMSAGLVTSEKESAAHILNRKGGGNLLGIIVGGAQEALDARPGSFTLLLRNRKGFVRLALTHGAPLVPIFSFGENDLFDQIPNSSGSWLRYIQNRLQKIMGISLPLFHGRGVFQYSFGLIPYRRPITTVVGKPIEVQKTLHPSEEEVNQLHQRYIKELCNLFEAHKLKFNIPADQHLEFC

SMILES | IC50
COc1ccc(-c2nn3c(c2NC(=O)CS(C)(=O)=O)C(=O)N[C@@]2(CCc4cc(OCC(F)(F)F)ccc42)C3)cc1F [Compound I-52] | 15.2 nM
Cc1c(F)cc(-c2nn3c(c2NC(=O)CS(C)(=O)=O)C(=O)N[C@@]2(CCc4cc(OCC(F)(F)F)ccc42)C3)cc1F [Compound I-53] | 1.75 nM
COCOc1ccc2c(c1)CCC21Cn2nc(-c3ccc(C#N)cn3)c(NC(=O)CS(C)(=O)=O)c2C(=O)N1 (centres unmarked) [Compound I-54] | 5.88 nM
Cc1ccc(-c2nn3c(c2NC(=O)CS(C)(=O)=O)C(=O)NC2(CCc4cc(OCc5ccccc5)ccc42)C3)nc1 (centres unmarked) [Compound I-55] | 1 nM
CS(=O)(=O)CC(=O)Nc1c(-c2ccc(C3CC3)cn2)nn2c1C(=O)N[C@]1(CCc3cc(OCC(F)(F)F)ccc31)C2 [Compound I-56] | 1.03 nM
CS(=O)(=O)CC(=O)Nc1c(-c2ccc(C3CC3)cn2)nn2c1C(=O)N[C@@]1(CCc3cc(OCC(F)(F)F)ccc31)C2 [Compound I-57] | 1.14 nM
CS(=O)(=O)CC(=O)Nc1c(-c2ccc(Cl)cn2)nn2c1C(=O)N[C@]1(CCc3cc(OCC(F)(F)F)ccc31)C2 [Compound I-59] | 0.48 nM
CS(=O)(=O)CC(=O)Nc1c(-c2ccc(Cl)cn2)nn2c1C(=O)N[C@@]1(CCc3cc(OCC(F)(F)F)ccc31)C2 [Compound I-60] | 0.527 nM
CS(=O)(=O)CC(=O)Nc1c(CCC2CC2)nn2c1C(=O)NC1(CN(c3ccc(C(F)(F)F)cc3)C1)C2 [Compound I-64] | 1.26 nM
Cc1ccc(-c2nn3c(c2NC(=O)CS(C)(=O)=O)C(=O)NC2(CN(c4ccc(C(F)(F)F)cc4)C2)C3)nc1 [Compound I-65] | 0.935 nM
CS(=O)(=O)CC(=O)Nc1c(-c2ccc(F)c(F)c2)nn2c1C(=O)N[C@@]1(CCOc3cc(OCC(F)(F)F)ccc31)C2 [Compound I-67] | 0.671 nM
CCOc1ccc2c(c1)CC[C@@]21Cn2nc(-c3ccc(F)cc3)c(NC(=O)CS(C)(=O)=O)c2C(=O)N1 [Compound I-68] | 4.04 nM
CCOc1ccc2c(c1)CC[C@@]21Cn2nc(-c3ccc(F)c(F)c3)c(NC(=O)CS(C)(=O)=O)c2C(=O)N1 [Compound I-69] | 2.78 nM
CS(=O)(=O)CC(=O)Nc1c(-c2ccc(F)cc2)nn2c1C(=O)N[C@]1(CCOc3cc(OCC(F)(F)F)ccc31)C2 [Compound I-70] | 2.6 nM
CS(=O)(=O)CC(=O)Nc1c(-c2ccc(F)c(F)c2)nn2c1C(=O)N[C@]1(CCOc3cc(OCC(F)(F)F)ccc31)C2 [Compound I-71] | 1.8 nM
CS(=N)(=O)CC(=O)Nc1c(-c2ccc(Cl)c(F)c2)nn2c1C(=O)N[C@@]1(CCc3cc(OCC(F)(F)F)ccc31)C2 (some centres unmarked) [Compound I-73] | 2.82 nM
Cc1ccc(-c2nn3c(c2NC(=O)CS(C)(=O)=O)C(=O)N[C@@]2(CCc4cc(OCCCC(F)(F)F)ccc42)C3)nc1 [Compound I-74] | 1.06 nM
Cc1ccc(-c2nn3c(c2NC(=O)CS(C)(=O)=O)C(=O)N[C@]2(CCc4cc(OCCCC(F)(F)F)ccc42)C3)nc1 [Compound I-75] | 1.47 nM
Cc1ccc(-c2nn3c(c2NC(=O)CS(C)(=O)=O)C(=O)N[C@]2(CCc4cc(OCC(F)(F)F)ccc42)C3)cc1 [Compound I-76] | 1.94 nM
Cc1cccc(-c2nn3c(c2NC(=O)CS(C)(=O)=O)C(=O)N[C@]2(CCc4cc(OCC(F)(F)F)ccc42)C3)c1 [Compound I-77] | 2.54 nM
Cc1ccccc1-c1nn2c(c1NC(=O)CS(C)(=O)=O)C(=O)N[C@]1(CCc3cc(OCC(F)(F)F)ccc31)C2 [Compound I-78] | 88.3 nM
CS(=O)(=O)CC(=O)Nc1c(-c2ccc(C(F)F)cc2)nn2c1C(=O)N[C@]1(CCc3cc(OCC(F)(F)F)ccc31)C2 [Compound I-80] | 1.28 nM
CS(=O)(=O)CC(=O)Nc1c(-c2ccc(C(F)(F)F)cc2)nn2c1C(=O)N[C@]1(CCc3cc(OCC(F)(F)F)ccc31)C2 [Compound I-81] | 1.54 nM
COc1ccc(-c2nn3c(c2NC(=O)CS(C)(=O)=O)C(=O)N[C@]2(CCc4cc(OCC(F)(F)F)ccc42)C3)cc1 [Compound I-82] | 6.51 nM
CS(=O)(=O)CC(=O)Nc1c(-c2ccc(OC(F)(F)F)cc2)nn2c1C(=O)N[C@]1(CCc3cc(OCC(F)(F)F)ccc31)C2 [Compound I-83] | 4.37 nM
CS(=O)(=O)CC(=O)Nc1c(-c2ccc(OC(F)F)cc2)nn2c1C(=O)N[C@]1(CCc3cc(OCC(F)(F)F)ccc31)C2 [Compound I-84] | 2.51 nM
CS(=O)(=O)CC(=O)Nc1c(-c2ccc(C3CC3)cc2)nn2c1C(=O)N[C@]1(CCc3cc(OCC(F)(F)F)ccc31)C2 [Compound I-85] | 2.88 nM

SMILES | IC50
CS(=O)(=O)CC(=O)Nc1c(-c2ccc(OC3CC3)cc2)nn2c1C(=O)N[C@]1(CCc3cc(OCC(F)(F)F)ccc31)C2 [Compound I-86] | 131 nM
CS(=O)(=O)CC(=O)Nc1c(-c2ccc(C#N)cc2)nn2c1C(=O)N[C@]1(CCc3cc(OCC(F)(F)F)ccc31)C2 [Compound I-87] | 2.55 nM
Cc1cc(-c2nn3c(c2NC(=O)CS(C)(=O)=O)C(=O)N[C@]2(CCc4cc(OCC(F)(F)F)ccc42)C3)ccc1F [Compound I-88] | 1.17 nM
CS(=O)(=O)CC(=O)Nc1c(-c2ccc(F)c(F)c2)nn2c1C(=O)N[C@]1(CCc3cc(OCC(F)(F)F)ccc31)C2 [Compound I-89] | 0.761 nM
Cc1ccc(-c2nn3c(c2NC(=O)CS(C)(=O)=O)C(=O)N[C@]2(CCc4cc(OCC(F)(F)F)ccc42)C3)cc1F [Compound I-90] | 1.1 nM
Cc1cc(F)ccc1-c1nn2c(c1NC(=O)CS(C)(=O)=O)C(=O)N[C@]1(CCc3cc(OCC(F)(F)F)ccc31)C2 [Compound I-91] | 19.5 nM
CS(=O)(=O)CC(=O)Nc1c(-c2cc(F)c(F)c(F)c2)nn2c1C(=O)N[C@]1(CCc3cc(OCC(F)(F)F)ccc31)C2 [Compound I-92] | 0.585 nM
CC(C)(O)c1ccc(-c2nn3c(c2NC(=O)CS(C)(=O)=O)C(=O)N[C@]2(CCc4cc(OCC(F)(F)F)ccc42)C3)cc1 [Compound I-93] | 9.47 nM
CS(=O)(=O)CC(=O)Nc1c(CCC2CC2)nn2c1C(=O)N[C@]1(CCc3cc(OCC(F)(F)F)ccc31)C2 [Compound I-94] | 1.08 nM
CCCCCc1nn2c(c1NC(=O)CS(C)(=O)=O)C(=O)N[C@]1(CCc3cc(OCC(F)(F)F)ccc31)C2 [Compound I-95] | 1.48 nM
CS(=O)(=O)CC(=O)Nc1c(-c2ccc(S(C)(=O)=O)cc2)nn2c1C(=O)N[C@]1(CCc3cc(OCC(F)(F)F)ccc31)C2 [Compound I-96] | 208 nM
CC(C)c1ccc(-c2nn3c(c2NC(=O)CS(C)(=O)=O)C(=O)N[C@]2(CCc4cc(OCC(F)(F)F)ccc42)C3)cc1 [Compound I-97] | 3.51 nM
CS(=O)(=O)CC(=O)Nc1c(-c2cc(F)cc(F)c2)nn2c1C(=O)N[C@]1(CCc3cc(OCC(F)(F)F)ccc31)C2 [Compound I-98] | 2.15 nM
CS(=O)(=O)CC(=O)Nc1c(-c2ccc(C#N)c(F)c2)nn2c1C(=O)N[C@]1(CCc3cc(OCC(F)(F)F)ccc31)C2 [Compound I-99] | 1.28 nM
COc1ccc(-c2nn3c(c2NC(=O)CS(C)(=O)=O)C(=O)N[C@]2(CCc4cc(OCC(F)(F)F)ccc42)C3)cc1F [Compound I-100] | 4.59 nM
Cc1c(F)cc(-c2nn3c(c2NC(=O)CS(C)(=O)=O)C(=O)N[C@]2(CCc4cc(OCC(F)(F)F)ccc42)C3)cc1F [Compound I-101] | 1.36 nM
CS(=O)(=O)CC(=O)Nc1c(CCC(F)(F)F)nn2c1C(=O)N[C@]1(CCc3cc(OCC(F)(F)F)ccc31)C2 [Compound I-102] | 5.65 nM
CCOc1ccc2c(c1)CC[C@]21Cn2nc(CCC3CC3)c(NC(=O)CS(C)(=O)=O)c2C(=O)N1 [Compound I-103] | 7.03 nM
CCCCCc1nn2c(c1NC(=O)CS(C)(=O)=O)C(=O)N[C@@]1(CCc3cc(OCC)ccc31)C2 [Compound I-104] | 24.7 nM
CS(=N)(=O)CC(=O)Nc1c(-c2ccc(F)c(F)c2)nn2c1C(=O)N[C@@]1(CCc3cc(OCC(F)(F)F)ccc31)C2 (some centres unmarked) [Compound I-108] | 3.43 nM
CS(=O)(=O)CC(=O)Nc1c(CCC2CC2)nn2c1C(=O)N[C@@]1(CCOc3cc(OCC(F)(F)F)ccc31)C2 [Compound I-109] | 1.18 nM
CS(=O)(=O)CC(=O)Nc1c(CCC2CC2)nn2c1C(=O)N[C@]1(CCOc3cc(OCC(F)(F)F)ccc31)C2 [Compound I-110] | 2.14 nM
CCOc1ccc2c(c1)CC[C@@]21Cn2nc(CCC3CC3)c(NC(=O)CS(C)(=O)=O)c2C(=O)N1 [Compound I-111] | 7.61 nM
CS(=N)(=O)CC(=O)Nc1c(-c2ccc(C(F)(F)F)cc2)nn2c1C(=O)N[C@@]1(CCc3cc(OCC(F)(F)F)ccc31)C2 (some centres unmarked) [Compound I-112] | 3.96 nM
CCCCCc1nn2c(c1NC(=O)CS(C)(=O)=O)C(=O)N[C@@]1(CCOc3cc(OCC(F)(F)F)ccc31)C2 [Compound I-113] | 1.58 nM
CCCCCc1nn2c(c1NC(=O)CS(C)(=O)=O)C(=O)N[C@]1(CCOc3cc(OCC(F)(F)F)ccc31)C2 [Compound I-114] | 3.1 nM
